≈ marks a conversion by molar mass, not a printed value.
Experiments:
Pichia kudriavzevii [1] = experiment: Antifungal activity against Candida krusei ATCC 6258 after 24 hrs; assay type: functional; conditions: ATCC 6258, 24 h
Pichia kudriavzevii [2] = experiment: Antifungal activity against Candida krusei E 28 after 24 to 48 hrs; assay type: functional
Candida tropicalis [3] = experiment: Antifungal activity against Candida tropicalis 156 after 24 to 48 hrs; assay type: functional
Candida parapsilosis [4] = experiment: Antifungal activity against Candida parapsilosis ATCC 22019 after 24 hrs; assay type: functional; conditions: Lodderomyces parapsilosis, ATCC 22019, 24 h
Nakaseomyces glabratus [5] = experiment: Antifungal activity against Candida glabrata 20/I after 24 to 48 hrs; assay type: functional
Candida albicans [6] = experiment: Antifungal activity against Candida albicans ATCC 24433 after 24 hrs; assay type: functional; conditions: ATCC 24433, 24 h
[7] = system: Trichophyton mentagrophytes; experiment: Antifungal activity against Trichophyton mentagrophytes after 72 to 120 hrs; assay type: functional
Candida albicans [8] = experiment: Antifungal activity against Candida albicans ATCC 44859 after 24 to 48 hrs; assay type: functional
Aspergillus fumigatus [9] = experiment: Antifungal activity against Aspergillus fumigatus after 24 to 48 hrs; assay type: functional
Nakaseomyces glabratus [10] = experiment: Antifungal activity against Candida glabrata ATCC 90030 after 24 hrs; assay type: functional; conditions: ATCC 90030, 24 h
[11] = system: Trichophyton mentagrophytes; experiment: Fungicidal activity against Trichophyton mentagrophytes after 24 hrs by broth dilution method; assay type: functional
[12] = system: Trichophyton mentagrophytes; experiment: Antifungal activity against Trichophyton mentagrophytes after 24 hrs by broth dilution method; assay type: functional
Aspergillus fumigatus [13] = experiment: Fungicidal activity against Aspergillus fumigatus after 24 hrs by broth dilution method; assay type: functional
Candida albicans [14] = experiment: Antifungal activity against Candida albicans after 24 hrs by broth dilution method; assay type: functional
Candida parapsilosis [15] = experiment: Antifungal activity against FLC-resistant Candida parapsilosis DSM 5784; assay type: functional; conditions: Lodderomyces parapsilosis
Clavispora lusitaniae [16] = experiment: Fungicidal activity against FLC-resistant Candida lusitaniae DSM 70102; assay type: functional
Pichia kudriavzevii [17] = experiment: Antifungal activity against FLC-resistant Candida krusei DSM 6128; assay type: functional
Candida albicans [18] = experiment: Antifungal activity against FLC-resistant Candida stellatoidea CBS 1905; assay type: functional
Kluyveromyces marxianus [19] = experiment: Antifungal activity against FLC-resistant Candida pseudotropicalis KKP 324; assay type: functional
Pichia kudriavzevii [20] = experiment: Fungicidal activity against FLC-resistant Candida krusei DSM 6128; assay type: functional
Candida dubliniensis [21] = experiment: Antifungal activity against FLC-resistant Candida dubliniensis CBS 7987; assay type: functional
Yarrowia lipolytica [22] = experiment: Fungicidal activity against FLC-resistant Candida lipolytica KKP 332; assay type: functional
Candida albicans [23] = experiment: Fungicidal activity against FLC-resistant Candida albicans ATCC 10231; assay type: functional
Candida albicans [24] = experiment: Antifungal activity against FLC-resistant Candida albicans ATCC 10231; assay type: functional
Nakaseomyces glabratus [25] = experiment: Fungicidal activity against FLC-resistant Candida glabrata DSM 11226; assay type: functional
[26] = Fungicidal activity against FLC-resistant Candida arborea KKP 319; assay type: functional
[27] = Antifungal activity against FLC-resistant Candida arborea KKP 319; assay type: functional
Yarrowia lipolytica [28] = experiment: Antifungal activity against FLC-resistant Candida lipolytica KKP 332; assay type: functional
Kluyveromyces marxianus [29] = experiment: Fungicidal activity against FLC-resistant Candida pseudotropicalis KKP 324; assay type: functional
Candida albicans [30] = experiment: Fungicidal activity against FLC-resistant Candida stellatoidea CBS 1905; assay type: functional
[31] = system: Meyerozyma guilliermondii; experiment: Antifungal activity against FLC-resistant Candida guilliermondii DSM 11947; assay type: functional
Clavispora lusitaniae [32] = experiment: Antifungal activity against FLC-resistant Candida lusitaniae DSM 70102; assay type: functional
Candida dubliniensis [33] = experiment: Fungicidal activity against FLC-resistant Candida dubliniensis CBS 7987; assay type: functional
Candida parapsilosis [34] = experiment: Fungicidal activity against FLC-resistant Candida parapsilosis DSM 5784; assay type: functional; conditions: Lodderomyces parapsilosis
[35] = system: Meyerozyma guilliermondii; experiment: Fungicidal activity against FLC-resistant Candida guilliermondii DSM 11947; assay type: functional
Candida tropicalis [36] = experiment: Antifungal activity against FLC-resistant Candida tropicalis KKP 334; assay type: functional
Nakaseomyces glabratus [37] = experiment: Antifungal activity against FLC-resistant Candida glabrata DSM 11226; assay type: functional
Candida tropicalis [38] = experiment: Fungicidal activity against FLC-resistant Candida tropicalis KKP 334; assay type: functional
Aspergillus fumigatus [39] = experiment: Antifungal activity against Aspergillus fumigatus after 24 hrs by broth dilution method; assay type: functional
Trichophyton rubrum [40] = experiment: Antifungal activity against Trichophyton rubrum deltaTruMDR2 by CLSI-based microdilution method; assay type: functional
[41] = Inhibition of fatty acid synthase in Trichophyton rubrum ATCC MYA3108
[42] = Inhibition of fatty acid synthase in Trichophyton rubrum deltaTruMDR2
Trichophyton rubrum [43] = experiment: Antifungal activity against Trichophyton rubrum ATCC MYA3108 by CLSI-based microdilution method; assay type: functional

## O=C(/C=C/c1ccccc1[N+](=O)[O-])c1cnccn1
Pichia kudriavzevii [1]
  MIC: 0.78 to 3.12 mg/L (≈ 3.06 to 12.2 µM)
Pichia kudriavzevii [2]
  MIC: 7.81 to 125 mg/L (≈ 30.6 to 490 µM)
Candida tropicalis [3]
  MIC: 7.81 to 500 mg/L (≈ 30.6 to 1960 µM)
Candida parapsilosis [4]
  MIC: 0.78 to 3.12 mg/L (≈ 3.06 to 12.2 µM)
Nakaseomyces glabratus [5]
  MIC: 7.81 to 41.6 mg/L (≈ 30.6 to 163 µM)
Candida albicans [6]
  MIC: 0.78 to 3.12 mg/L (≈ 3.06 to 12.2 µM)
[7]
  MIC: 6.51 to 31.2 mg/L (≈ 25.5 to 122 µM)
Candida albicans [8]
  MIC: 7.81 mg/L (≈ 30.6 µM)
Aspergillus fumigatus [9]
  MIC: 7.81 to 500 mg/L (≈ 30.6 to 1960 µM)
Nakaseomyces glabratus [10]
  MIC: 0.78 to 3.12 mg/L (≈ 3.06 to 12.2 µM)

## O=C1NC(=O)C(C(=O)/C=C/c2coc3ccccc3c2=O)C(=O)N1
[11]
  MFC: 50 mg/L (≈ 153 µM)
[12]
  MIC: 12.5 mg/L (≈ 38.3 µM)
Aspergillus fumigatus [13]
  MFC: 50 mg/L (≈ 153 µM)
Candida albicans [14]
  MIC: 12.5 mg/L (≈ 38.3 µM)

## COc1ccc2oc(=O)sc2c1C(=O)/C=C/c1ccc(OCCN(C)C)cc1
Candida parapsilosis [15]
  MIC: 1 to 16 mg/L (≈ 2.5 to 40.1 µM)
Clavispora lusitaniae [16]
  MIC: 8 to 32 mg/L (≈ 20 to 80.1 µM)
Pichia kudriavzevii [17]
  MIC: 1 to 16 mg/L (≈ 2.5 to 40.1 µM)
Candida albicans [18]
  MIC: 1 to 16 mg/L (≈ 2.5 to 40.1 µM)
Kluyveromyces marxianus [19]
  MIC: 1 to 16 mg/L (≈ 2.5 to 40.1 µM)
Pichia kudriavzevii [20]
  MIC: 8 to 32 mg/L (≈ 20 to 80.1 µM)
Candida dubliniensis [21]
  MIC: 1 to 16 mg/L (≈ 2.5 to 40.1 µM)
Yarrowia lipolytica [22]
  MIC: 8 to 32 mg/L (≈ 20 to 80.1 µM)
Candida albicans [23]
  MIC: 8 to 32 mg/L (≈ 20 to 80.1 µM)
Candida albicans [24]
  MIC: 1 to 16 mg/L (≈ 2.5 to 40.1 µM)
Nakaseomyces glabratus [25]
  MIC: 8 to 32 mg/L (≈ 20 to 80.1 µM)
[26]
  MIC: 8 to 32 mg/L (≈ 20 to 80.1 µM)
[27]
  MIC: 1 to 16 mg/L (≈ 2.5 to 40.1 µM)
Yarrowia lipolytica [28]
  MIC: 1 to 16 mg/L (≈ 2.5 to 40.1 µM)
Kluyveromyces marxianus [29]
  MIC: 8 to 32 mg/L (≈ 20 to 80.1 µM)
Candida albicans [30]
  MIC: 8 to 32 mg/L (≈ 20 to 80.1 µM)
[31]
  MIC: 1 to 16 mg/L (≈ 2.5 to 40.1 µM)
Clavispora lusitaniae [32]
  MIC: 1 to 16 mg/L (≈ 2.5 to 40.1 µM)
Candida dubliniensis [33]
  MIC: 8 to 32 mg/L (≈ 20 to 80.1 µM)
Candida parapsilosis [34]
  MIC: 8 to 32 mg/L (≈ 20 to 80.1 µM)
[35]
  MIC: 8 to 32 mg/L (≈ 20 to 80.1 µM)
Candida tropicalis [36]
  MIC: 1 to 16 mg/L (≈ 2.5 to 40.1 µM)
Nakaseomyces glabratus [37]
  MIC: 1 to 16 mg/L (≈ 2.5 to 40.1 µM)
Candida tropicalis [38]
  MIC: 8 to 32 mg/L (≈ 20 to 80.1 µM)

## Cc1cc(O)c(C(=O)/C=C/c2coc3ccccc3c2=O)c(=O)o1
Aspergillus fumigatus [39]
  MFC: 50 mg/L (≈ 154 µM)
Candida albicans [14]
  MIC: 12.5 mg/L (≈ 38.5 µM)

## O=C(/C=C/c1ccccc1)c1ccccc1 [CHALCONE]
Trichophyton rubrum [40]
  MIC: 1.9 mg/L (≈ 9.12 µM)
[41]
  IC50: 68.23 mg/L (≈ 328 µM)
[42]
  IC50: 17.1 mg/L (≈ 82.1 µM)
Trichophyton rubrum [43]
  MIC: 7.5 mg/L (≈ 36 µM)
